Values of other authors, collected in publication PMC6748410, “A phase 2 study of an oral mTORC1/mTORC2 kinase inhibitor (CC-223) for non-pancreatic neuroendocrine tumors with or without carcinoid symptoms” (PLoS ONE, 2019).

Tested on: NET arising from the pancreas, lung, or GI tract
Parameters: method as in PMID 26703889, PMID 21306238
Conditions: cited from earlier work

## CO[C@H]1C[C@@H]2CC[C@@H](C)[C@@](O)(O2)C(=O)C(=O)N2CCCC[C@H]2C(=O)O[C@H]([C@H](C)C[C@@H]2CC[C@@H](OCCO)[C@H](OC)C2)CC(=O)[C@H](C)/C=C(\C)[C@@H](O)[C@@H](OC)C(=O)[C@H](C)C[C@H](C)/C=C/C=C/C=C/1C [everolimus]
  Median progression-free survival (PFS): 11.0 months
